The values that follow are results of earlier work, collected in EP1323421A1 (priority 2001, dated 2003).

Read-outs that look alike come from different tables or passages of the source.

For data set [1] the following is noted: in vivo.
Assay in data set [2]: not given
This is another data set of the same source.

Assay in data set [3]: not given
The source holds these as a separate data set.

The next data set has as its system plasma proteins. As to conditions: mainly to alpha and beta globulins.
Setting [4] is: intravenous single dose of about 0.3 mg.

In the case of `CO[C@]12CC[C@@]3(C[C@@H]1[C@](C)(O)C(C)(C)C)[C@H]1Cc4ccc(O)c5c4[C@@]3(CCN1CC1CC1)[C@H]2O5` [buprenorphine, 21-cyclopropyl-7.varies.-[(S)-1-hydroxy-1,2,2-trimethylpropyl]-6,14-endo-e thano-6,7,8,14-tetrahydrooripavine], for the setting “0.4 mg sublingual dose”, the Tmax is 210.+-.40 minutes and the systemic availability is recorded as 57.7%. Under “0.8 mg sublingual dose”, the Tmax was 192.+-.49 minutes and the systemic availability is on record as 54.1%. Moreover, for the setting “conscious postoperative patients”, the Total plasma clearance entry was “approximately 1.28 I/minute”. Also, the hepatic extraction ratio result (in vivo) is “approximately 1”. For the same molecule, the Oral bioavailability (in vivo, po) is reported as around 15%. Moreover, the “mean peak plasma buprenorphine concentrations” value (intramuscular second 0.3-mg dose 3 hours after the initial intravenous dose) is given as “about 3.6 ng/ml”. The plasma concentrations result (intramuscular second 0.3-mg dose, after about 3 hours) is recorded as “about 0.4 ng/ml”. In addition, the plasma concentrations entry (intravenous about 0.3 mg, after about 5 minutes) is listed as “about 9 ng/ml”. For the setting “intravenous about 0.3 mg, after about 3 hours”, the plasma concentrations entry is “about 0.4 ng/ml”. Also, under setting [4], the “mean peak plasma drug concentrations” value is “about 18 ng/ml” and the “time of mean peak plasma drug concentrations” value was at most 2 min. Also, in data set [1], the “analgesic potency relative to meperidine” value was “about 600 times”, the “analgesic potency relative to pentazocine” value was “about 200 times” and the “mean duration of analgesia” value is on record as “six”. Moreover, the “time to highest concentrations in the liver” value in data set [2] (intramuscular administration in rats) is at most 40 min. Further, in data set [2] (oral administration in rats), the “time to highest concentrations in the liver” value is at most 10 min. In data set [3] (epidural application, 4 µg/kg (Batra) or 2 µg/kg (Drenger [with dogs])), the “influence on the function of bladder or urethra” value is “does not have a significant influence”. The “cases showing urinary retention” value in data set [3] (i.v. application of 0.3 mg, patients of approx. 70 kg (4.3 µg/kg), Malinovsky) was 5 out of 10. Moreover, in data set [3] (sublingual application of 400µg (~ 5.7 µg/kg), case shown by Murray), the urinary retention entry was “urinary retention was seen”. Besides, the “bound to plasma proteins” value in the data set with plasma proteins was “approximately 96%”.
